Assay results taken from paper PMC6738096 (British Journal of Cancer, 2019).

Test: Phase 1 dose-escalation trial: safety and tolerability (TEAEs, SAEs, DLT, MTD, RP2D)
Experimental: Endpoints included the incidence of DLTs (defined in the ‘Safety' section) in the first 28-day treatment cycle (cycle 1), the frequency and severity of adverse events (AEs) and serious AEs (SAEs) and changes in laboratory values, vital signs, physical examination findings and Eastern Cooperative Oncology Group (ECOG) performance status (PS).
The starting dose was 30 mg, which was determined by review of nonclinical toxicokinetic assessments. A treatment cycle comprised 28 days in the absence of disease progression or unacceptable toxicity. Patients received starting doses ranging from 30 mg once every 24 hours (Q24h) to 480 mg Q24h, and escalation proceeded based on a 3 + 3 design.
The subsequent cohort started at a reduced dosing regimen. Additional dosing schedules were once every 12 hours (Q12h) at 30 and 60 mg and once every 8 hours (Q8h) at 20 and 40 mg.
Toxicities were graded and recorded according to NCI CTCAE version 4.03. Patients were assessed for DLTs during the first 28-day cycle. A DLT was defined as any grade ≥ 3 nonhaematologic toxicity, according to NCI CTCAE version 4.03.

CC(C)NC(=O)[C@H]1CC[C@@H](n2c(NC(=O)c3ccc(F)cc3)nc3ccc(CN4CCC(C(C)(C)O)CC4)cc32)CC1 [TSR-011]
Drug-related TEAE: Abnormal dreams (20 mg Q8h (n = 16)): 1 (6.3) n (%)
Drug-related TEAE: Anaemia (20 mg Q8h (n = 16)): 0 n (%)
Drug-related TEAE: Asthenia (20 mg Q8h (n = 16)): 1 (6.3) n (%)
Drug-related TEAE: Constipation (20 mg Q8h (n = 16)): 2 (12.5) n (%)
Drug-related TEAE: Decreased appetite (20 mg Q8h (n = 16)): 1 (6.3) n (%)
Drug-related TEAE: Diarrhoea (20 mg Q8h (n = 16)): 1 (6.3) n (%)
Drug-related TEAE: Dysaesthesia (20 mg Q8h (n = 16)): 1 (6.3) n (%)
Drug-related TEAE: Dysgeusia (20 mg Q8h (n = 16)): 0 n (%)
Drug-related TEAE: Electrocardiogram QTc prolonged (20 mg Q8h (n = 16)): 1 (6.3) n (%)
Drug-related TEAE: Fatigue (20 mg Q8h (n = 16)): 1 (6.3) n (%)
Drug-related TEAE: Headache (20 mg Q8h (n = 16)): 0 n (%)
Drug-related TEAE: Hot flush (20 mg Q8h (n = 16)): 1 (6.3) n (%)
Drug-related TEAE: Increased transaminases (20 mg Q8h (n = 16)): 0 n (%)
Drug-related TEAE: Insomnia (20 mg Q8h (n = 16)): 0 n (%)
Drug-related TEAE: Myalgia (20 mg Q8h (n = 16)): 0 n (%)
Drug-related TEAE: Nausea (20 mg Q8h (n = 16)): 0 n (%)
Drug-related TEAE: Peripheral oedema (20 mg Q8h (n = 16)): 0 n (%)
Drug-related TEAE: Rash (20 mg Q8h (n = 16)): 0 n (%)
Drug-related TEAE: Vomiting (20 mg Q8h (n = 16)): 2 (12.5) n (%)
Grade 3 TEAE: Anaemia (20 mg Q8h (n = 16)): 2 (12.5) n (%)
Grade 3 TEAE: Ascites (20 mg Q8h (n = 16)): 1 (6.3) n (%)
Grade 3 TEAE: Asthenia (20 mg Q8h (n = 16)): 1 (6.3) n (%)
Grade 3 TEAE: Dyspnoea (20 mg Q8h (n = 16)): 0 n (%)
Grade 3 TEAE: Electrocardiogram QTc prolonged (20 mg Q8h (n = 16)): 0 n (%)
Grade 3 TEAE: Fatigue (20 mg Q8h (n = 16)): 1 (6.3) n (%)
Grade 3 TEAE: Metastases to the central nervous system (20 mg Q8h (n = 16)): 1 (6.3) n (%)
Patients with any TEAE (20 mg Q8h (n = 16)): 16 (100.0) Number (%)
Patients with any TEAE leading to treatment discontinuation (20 mg Q8h (n = 16)): 2 (12.5) Number (%)
Patients with any serious TEAE (20 mg Q8h (n = 16)): 7 (43.8) Number (%)
Patients with any study drug-related TEAE (20 mg Q8h (n = 16)): 9 (56.3) Number (%)
Patients with ≥ 1 treatment-emergent SAE (20 mg Q8h (n = 16)): 7 (43.8) n (%)
SAE class: Blood and lymphatic system disorders (20 mg Q8h (n = 16)): 0 n (%)
SAE class: Cardiac disorders (20 mg Q8h (n = 16)): 0 n (%)
SAE class: Gastrointestinal disorders (20 mg Q8h (n = 16)): 1 (6.3) n (%)
SAE class: General disorders and administration-site conditions (20 mg Q8h (n = 16)): 2 (12.5) n (%)
SAE class: Hepatobiliary disorders (20 mg Q8h (n = 16)): 1 (6.3) n (%)
SAE class: Infections and infestations (20 mg Q8h (n = 16)): 1 (6.3) n (%)
SAE class: Metabolism and nutrition disorders (20 mg Q8h (n = 16)): 1 (6.3) n (%)
SAE class: Musculoskeletal and connective tissue disorders (20 mg Q8h (n = 16)): 1 (6.3) n (%)
SAE class: Neoplasms benign, malignant and unspecified (including cysts and polyps) (20 mg Q8h (n = 16)): 2 (12.5) n (%)
SAE class: Nervous system disorders (20 mg Q8h (n = 16)): 1 (6.3) n (%)
SAE class: Respiratory, thoracic and mediastinal disorders (20 mg Q8h (n = 16)): 0 n (%)
SAE class: Vascular disorders (20 mg Q8h (n = 16)): 1 (6.3) n (%)
SAE: Abdominal pain (20 mg Q8h (n = 16)): 0 n (%)
SAE: Anaemia (20 mg Q8h (n = 16)): 0 n (%)
SAE: Asthenia (20 mg Q8h (n = 16)): 1 (6.3) n (%)
SAE: Basal cell carcinoma (20 mg Q8h (n = 16)): 1 (6.3) n (%)
SAE: Bone pain (20 mg Q8h (n = 16)): 1 (6.3) n (%)
SAE: Deep-vein thrombosis (20 mg Q8h (n = 16)): 1 (6.3) n (%)
SAE: Dehydration (20 mg Q8h (n = 16)): 1 (6.3) n (%)
SAE: Disease progression (20 mg Q8h (n = 16)): 2 (12.5) n (%)
SAE: Dyspnoea (20 mg Q8h (n = 16)): 0 n (%)
SAE: Gastric haemorrhage (20 mg Q8h (n = 16)): 1 (6.3) n (%)
SAE: Gastric ulcer helicobacter (20 mg Q8h (n = 16)): 0 n (%)
SAE: Infection (20 mg Q8h (n = 16)): 0 n (%)
SAE: Lower respiratory tract infection (20 mg Q8h (n = 16)): 0 n (%)
SAE: Mastoiditis (20 mg Q8h (n = 16)): 1 (6.3) n (%)
SAE: Mental impairment (20 mg Q8h (n = 16)): 1 (6.3) n (%)
SAE: Metastases to the central nervous system (20 mg Q8h (n = 16)): 1 (6.3) n (%)
SAE: Pericardial effusion (20 mg Q8h (n = 16)): 0 n (%)
SAE: Pleural effusion (20 mg Q8h (n = 16)): 0 n (%)
SAE: Pneumonia (20 mg Q8h (n = 16)): 0 n (%)
SAE: Portal vein thrombosis (20 mg Q8h (n = 16)): 1 (6.3) n (%)
SAE: Seizure (20 mg Q8h (n = 16)): 1 (6.3) n (%)
SAE: Subarachnoid haemorrhage (20 mg Q8h (n = 16)): 0 n (%)
Total number of TEAEs (20 mg Q8h (n = 16)): 159
Total number of treatment-emergent SAEs (20 mg Q8h (n = 16)): 14
Patients with any AE leading to death (20 mg Q8h (n = 16), none deemed related to treatment): 2 (12.5) Number (%)
Drug-related TEAE: Abnormal dreams (40 mg Q8h (n = 31)): 0 n (%)
Drug-related TEAE: Anaemia (40 mg Q8h (n = 31)): 1 (3.2) n (%)
Drug-related TEAE: Asthenia (40 mg Q8h (n = 31)): 0 n (%)
Drug-related TEAE: Constipation (40 mg Q8h (n = 31)): 2 (6.5) n (%)
Drug-related TEAE: Decreased appetite (40 mg Q8h (n = 31)): 0 n (%)
Drug-related TEAE: Diarrhoea (40 mg Q8h (n = 31)): 0 n (%)
Drug-related TEAE: Dysaesthesia (40 mg Q8h (n = 31)): 0 n (%)
Drug-related TEAE: Dysgeusia (40 mg Q8h (n = 31)): 0 n (%)
Drug-related TEAE: Electrocardiogram QTc prolonged (40 mg Q8h (n = 31)): 3 (9.7) n (%)
Drug-related TEAE: Fatigue (40 mg Q8h (n = 31)): 0 n (%)
Drug-related TEAE: Headache (40 mg Q8h (n = 31)): 0 n (%)
Drug-related TEAE: Hot flush (40 mg Q8h (n = 31)): 0 n (%)
Drug-related TEAE: Increased transaminases (40 mg Q8h (n = 31)): 0 n (%)
Drug-related TEAE: Insomnia (40 mg Q8h (n = 31)): 2 (6.5) n (%)
Drug-related TEAE: Myalgia (40 mg Q8h (n = 31)): 0 n (%)
Drug-related TEAE: Nausea (40 mg Q8h (n = 31)): 1 (3.2) n (%)
Drug-related TEAE: Peripheral oedema (40 mg Q8h (n = 31)): 1 (3.2) n (%)
Drug-related TEAE: Rash (40 mg Q8h (n = 31)): 1 (3.2) n (%)
Drug-related TEAE: Vomiting (40 mg Q8h (n = 31)): 1 (3.2) n (%)
Grade 3 TEAE: Anaemia (40 mg Q8h (n = 31)): 2 (6.5) n (%)
Grade 3 TEAE: Ascites (40 mg Q8h (n = 31)): 0 n (%)
Grade 3 TEAE: Asthenia (40 mg Q8h (n = 31)): 1 (3.2) n (%)
Grade 3 TEAE: Dyspnoea (40 mg Q8h (n = 31)): 0 n (%)
Grade 3 TEAE: Electrocardiogram QTc prolonged (40 mg Q8h (n = 31)): 1 (3.2) n (%)
Grade 3 TEAE: Fatigue (40 mg Q8h (n = 31)): 0 n (%)
Grade 3 TEAE: Metastases to the central nervous system (40 mg Q8h (n = 31)): 1 (3.2) n (%)
Patients with any TEAE (40 mg Q8h (n = 31)): 29 (93.5) Number (%)
Patients with any TEAE leading to treatment discontinuation (40 mg Q8h (n = 31)): 5 (16.1) Number (%)
Patients with any serious TEAE (40 mg Q8h (n = 31)): 12 (38.7) Number (%)
Patients with any study drug-related TEAE (40 mg Q8h (n = 31)): 13 (41.9) Number (%)
Patients with ≥ 1 treatment-emergent SAE (40 mg Q8h (n = 31)): 12 (38.7) n (%)
SAE class: Blood and lymphatic system disorders (40 mg Q8h (n = 31)): 2 (6.5) n (%)
SAE class: Cardiac disorders (40 mg Q8h (n = 31)): 1 (3.2) n (%)
SAE class: Gastrointestinal disorders (40 mg Q8h (n = 31)): 1 (3.2) n (%)
SAE class: General disorders and administration-site conditions (40 mg Q8h (n = 31)): 2 (6.5) n (%)
SAE class: Hepatobiliary disorders (40 mg Q8h (n = 31)): 0 n (%)
SAE class: Infections and infestations (40 mg Q8h (n = 31)): 4 (12.9) n (%)
SAE class: Metabolism and nutrition disorders (40 mg Q8h (n = 31)): 0 n (%)
SAE class: Musculoskeletal and connective tissue disorders (40 mg Q8h (n = 31)): 0 n (%)
SAE class: Neoplasms benign, malignant and unspecified (including cysts and polyps) (40 mg Q8h (n = 31)): 1 (3.2) n (%)
SAE class: Nervous system disorders (40 mg Q8h (n = 31)): 2 (6.5) n (%)
SAE class: Respiratory, thoracic and mediastinal disorders (40 mg Q8h (n = 31)): 1 (3.2) n (%)
SAE class: Vascular disorders (40 mg Q8h (n = 31)): 0 n (%)
SAE: Abdominal pain (40 mg Q8h (n = 31)): 1 (3.2) n (%)
SAE: Anaemia (40 mg Q8h (n = 31)): 2 (6.5) n (%)
SAE: Asthenia (40 mg Q8h (n = 31)): 0 n (%)
SAE: Basal cell carcinoma (40 mg Q8h (n = 31)): 0 n (%)
